The source of these data is patent US6855716B2, “Dihydropyrimidine compounds and compositions containing the same” (Ajinomoto Co., Inc., priority 1999, dated 2005).

Structures are written as SMILES.

Assay [1] has as its target T1, N-type calcium channel (Homo sapiens, UniProt Q00975). Nature of the assay: Antagonistic activity on N-type calcium channel (fluorescence dye method). In kind it is cell-based.
For assay [2], the target named is T1, N-type calcium channel. Nature of the assay: N-type calcium channel antagonistic activity, changed procedure (fluorescence dye method, calculated from inhibition rates). The assay is classed as cell-based. Particulars: IMR-32 cells, 60 mM KCl stimulation, Table 3, read-out: N-type inhibition pIC50 (converted).

T1 sequence (Q00975 whole entry): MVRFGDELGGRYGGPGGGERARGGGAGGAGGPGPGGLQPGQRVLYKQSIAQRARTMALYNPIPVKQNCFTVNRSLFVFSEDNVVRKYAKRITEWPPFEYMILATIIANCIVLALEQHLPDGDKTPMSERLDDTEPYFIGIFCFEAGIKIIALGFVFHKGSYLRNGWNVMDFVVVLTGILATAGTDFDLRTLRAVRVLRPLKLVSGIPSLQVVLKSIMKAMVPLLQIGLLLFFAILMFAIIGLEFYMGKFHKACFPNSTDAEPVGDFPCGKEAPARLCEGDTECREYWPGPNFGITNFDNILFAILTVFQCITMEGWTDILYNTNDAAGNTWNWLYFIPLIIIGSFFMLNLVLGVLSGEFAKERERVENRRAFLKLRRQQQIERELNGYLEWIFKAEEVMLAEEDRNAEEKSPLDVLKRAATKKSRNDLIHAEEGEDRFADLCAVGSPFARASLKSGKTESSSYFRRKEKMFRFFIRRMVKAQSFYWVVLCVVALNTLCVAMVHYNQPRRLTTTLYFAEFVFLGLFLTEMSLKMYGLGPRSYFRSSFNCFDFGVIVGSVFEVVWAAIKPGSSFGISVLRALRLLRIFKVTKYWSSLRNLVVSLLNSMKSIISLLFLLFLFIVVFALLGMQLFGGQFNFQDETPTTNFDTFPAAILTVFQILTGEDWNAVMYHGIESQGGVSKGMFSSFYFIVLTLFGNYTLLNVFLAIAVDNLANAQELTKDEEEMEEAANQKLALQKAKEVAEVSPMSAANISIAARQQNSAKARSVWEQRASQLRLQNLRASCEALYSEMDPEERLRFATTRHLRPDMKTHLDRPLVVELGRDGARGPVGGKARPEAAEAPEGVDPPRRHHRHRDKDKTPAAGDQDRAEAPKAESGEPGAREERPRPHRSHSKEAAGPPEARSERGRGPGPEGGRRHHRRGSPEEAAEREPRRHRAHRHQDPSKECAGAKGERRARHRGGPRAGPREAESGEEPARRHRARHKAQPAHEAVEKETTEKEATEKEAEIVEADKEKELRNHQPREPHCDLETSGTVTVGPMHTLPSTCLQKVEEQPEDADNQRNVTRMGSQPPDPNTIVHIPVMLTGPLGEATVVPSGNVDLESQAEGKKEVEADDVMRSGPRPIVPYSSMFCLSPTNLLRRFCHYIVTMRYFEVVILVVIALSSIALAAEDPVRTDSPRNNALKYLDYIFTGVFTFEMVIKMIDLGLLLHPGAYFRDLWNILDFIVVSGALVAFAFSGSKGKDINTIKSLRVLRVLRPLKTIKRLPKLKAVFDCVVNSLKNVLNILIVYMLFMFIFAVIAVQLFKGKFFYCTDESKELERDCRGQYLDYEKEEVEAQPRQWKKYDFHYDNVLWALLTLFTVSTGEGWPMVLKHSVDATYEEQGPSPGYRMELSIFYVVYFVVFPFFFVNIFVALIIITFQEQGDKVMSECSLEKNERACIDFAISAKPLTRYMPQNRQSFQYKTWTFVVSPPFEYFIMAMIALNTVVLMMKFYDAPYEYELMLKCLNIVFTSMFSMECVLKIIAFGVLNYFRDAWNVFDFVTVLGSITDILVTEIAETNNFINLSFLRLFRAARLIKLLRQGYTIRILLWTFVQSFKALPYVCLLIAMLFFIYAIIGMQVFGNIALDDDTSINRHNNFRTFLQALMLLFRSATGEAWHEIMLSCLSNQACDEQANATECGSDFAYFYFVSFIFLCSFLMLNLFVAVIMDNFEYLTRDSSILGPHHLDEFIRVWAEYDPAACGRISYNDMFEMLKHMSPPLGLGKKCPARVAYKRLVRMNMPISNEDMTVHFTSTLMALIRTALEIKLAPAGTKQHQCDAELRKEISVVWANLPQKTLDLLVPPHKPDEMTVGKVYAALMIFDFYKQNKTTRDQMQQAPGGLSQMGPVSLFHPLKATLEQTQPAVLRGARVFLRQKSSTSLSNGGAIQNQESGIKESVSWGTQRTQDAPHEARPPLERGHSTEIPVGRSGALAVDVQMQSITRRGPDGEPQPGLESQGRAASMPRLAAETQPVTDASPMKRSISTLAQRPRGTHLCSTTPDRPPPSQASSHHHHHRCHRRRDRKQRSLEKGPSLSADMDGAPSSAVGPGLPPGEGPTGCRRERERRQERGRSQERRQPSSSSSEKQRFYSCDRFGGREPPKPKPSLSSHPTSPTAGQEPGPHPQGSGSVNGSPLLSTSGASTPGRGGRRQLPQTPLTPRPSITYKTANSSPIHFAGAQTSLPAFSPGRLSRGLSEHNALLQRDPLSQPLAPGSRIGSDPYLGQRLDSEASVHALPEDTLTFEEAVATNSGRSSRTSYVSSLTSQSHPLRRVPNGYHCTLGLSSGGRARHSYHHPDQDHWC
T1 sequence (P54284 whole entry partner): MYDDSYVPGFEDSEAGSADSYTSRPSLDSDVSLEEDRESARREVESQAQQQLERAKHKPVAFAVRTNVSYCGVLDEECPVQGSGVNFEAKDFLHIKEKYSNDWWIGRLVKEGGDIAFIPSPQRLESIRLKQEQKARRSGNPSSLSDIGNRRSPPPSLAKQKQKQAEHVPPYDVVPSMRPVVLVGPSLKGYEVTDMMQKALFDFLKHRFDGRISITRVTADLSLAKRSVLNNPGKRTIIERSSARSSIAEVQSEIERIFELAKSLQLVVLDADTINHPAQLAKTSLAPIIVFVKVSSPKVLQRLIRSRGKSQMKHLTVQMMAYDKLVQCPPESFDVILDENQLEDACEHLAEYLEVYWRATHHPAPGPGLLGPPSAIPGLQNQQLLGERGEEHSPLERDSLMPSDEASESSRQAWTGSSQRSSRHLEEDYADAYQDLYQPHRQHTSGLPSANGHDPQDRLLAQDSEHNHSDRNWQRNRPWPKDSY
T1 sequence (P54289 25-956 partner limits assumed): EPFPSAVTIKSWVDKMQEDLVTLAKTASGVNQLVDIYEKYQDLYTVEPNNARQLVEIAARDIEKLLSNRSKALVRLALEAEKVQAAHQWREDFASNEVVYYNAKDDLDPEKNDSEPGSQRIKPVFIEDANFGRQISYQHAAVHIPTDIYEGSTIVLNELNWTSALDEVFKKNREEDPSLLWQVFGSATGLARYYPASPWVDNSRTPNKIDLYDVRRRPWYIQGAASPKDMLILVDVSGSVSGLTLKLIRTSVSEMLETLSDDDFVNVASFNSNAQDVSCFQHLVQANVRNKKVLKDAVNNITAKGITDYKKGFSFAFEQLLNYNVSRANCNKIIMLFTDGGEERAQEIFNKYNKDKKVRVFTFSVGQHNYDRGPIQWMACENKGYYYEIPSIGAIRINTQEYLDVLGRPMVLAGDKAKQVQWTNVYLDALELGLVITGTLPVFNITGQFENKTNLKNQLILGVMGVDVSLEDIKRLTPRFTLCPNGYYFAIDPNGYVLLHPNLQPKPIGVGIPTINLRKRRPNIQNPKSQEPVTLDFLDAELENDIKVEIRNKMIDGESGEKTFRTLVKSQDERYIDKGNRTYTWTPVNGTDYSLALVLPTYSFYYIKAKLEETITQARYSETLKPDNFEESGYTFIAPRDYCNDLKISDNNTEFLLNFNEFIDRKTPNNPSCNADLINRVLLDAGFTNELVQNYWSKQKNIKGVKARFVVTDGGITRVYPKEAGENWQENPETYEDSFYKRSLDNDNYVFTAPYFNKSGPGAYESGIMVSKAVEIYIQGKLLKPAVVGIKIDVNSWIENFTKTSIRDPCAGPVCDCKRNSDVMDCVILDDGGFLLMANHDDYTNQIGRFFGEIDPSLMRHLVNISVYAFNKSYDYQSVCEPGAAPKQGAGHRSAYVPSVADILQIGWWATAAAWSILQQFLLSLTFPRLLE
T1 sequence (P54289 957-1103 partner limits assumed): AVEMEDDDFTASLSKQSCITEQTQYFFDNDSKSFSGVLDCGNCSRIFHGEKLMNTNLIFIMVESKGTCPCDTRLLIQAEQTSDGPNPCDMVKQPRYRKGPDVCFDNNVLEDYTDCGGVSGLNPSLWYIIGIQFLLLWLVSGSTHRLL

For the compound `O=C(NC/C=C/c1ccccc1)C1=C(COCCC2CCCCC2)NC(c2ccccc2)=NC1c1cccc(Cl)c1` (stereo not shown) [Example 2, 4-(3-chlorophenyl)-6-[(2-cyclohexylethoxy)methyl]-2-phenyl-5-[(3-phenyl-2-propene-1-yl)-carbamoyl]-1,4-dihydropyrimidine], the IC50 on N-type calcium channel [1] is 5890 nM.

Consider `CC1=C(C(=O)NC/C=C/c2ccccc2)C(c2cccc(Cl)c2)N=C(c2ccccc2)N1` (stereo not shown) [Example 68, 4-(3-chlorophenyl)-6-methyl-2-phenyl-1,4-dihydropyrimidine-5-carboxylic acid (3-phenyl-2-propene-1-yl)amide], for which, at N-type calcium channel [2], the IC50 was 1260 nM.

In the case of `CC1=C(C(=O)NCCC(c2ccccc2)c2ccccc2)C(c2ccc(Cl)c(Cl)c2)N=C(c2cccnc2)N1` (stereo not shown) [Example 64, 4-(3,4-dichlorophenyl)-6-methyl-2-pyridine-3-yl-1,4-dihydropyrimidine-5-carboxylic acid (3,3-diphenylpropyl)amide], on N-type calcium channel [2], the IC50 is 1260 nM.

As to `[N-]=[N+]=NCCOCC1=C(C(=O)NCCC(c2ccccc2)c2ccccc2)C(c2cccc(Cl)c2)NC(=O)N1` (stereo not shown) [Example 15, 6-(2-azidoethoxymethyl)-4-(3-chlorophenyl)-2-oxo-1,2,3,4-tetrahydropyrimidine-5-carboxylic acid (3,3-diphenylpropyl)amide], the IC50 on N-type calcium channel [2] was 2510 nM.

Regarding `CC1=C(C(=O)NCCC(c2ccccc2)c2ccccc2)C(c2cccc(Cl)c2)NC(=O)N1` (stereo not shown) [Example 3, 4-(3-chlorophenyl)-6-methyl-2-oxo-1,2,3,4-tetrahydropyrimidine-5-carboxylic acid (3,3-diphenylpropyl)amide], the IC50 on N-type calcium channel [1] is 891 nM; on N-type calcium channel [2], 2510 nM.

Regarding `CC1=C(C(=O)NCCC(c2ccccc2)c2ccccc2)C(c2cccc(Cl)c2)N=C(c2ccccc2)N1` (stereo not shown) [Example 67, 4-(3-chlorophenyl)-6-methyl-2-phenyl-1,4-dihydro-pyrimidine-5-carboxylic acid (3,3-diphenylpropyl)amide], the IC50 at N-type calcium channel [2] is 1580 nM.

On to `CC1=C(C(=O)NC/C=C/c2ccccc2)C(c2ccc(Cl)c(Cl)c2)N=C(c2ccccc2)N1` (stereo not shown) [Example 75, 4-(3,4-dichlorophenyl)-6-methyl-2-phenyl-1,4-dihydropyrimidine-5-carboxylic acid (3-phenyl-2-propene-1-yl)amide], for which the IC50 on N-type calcium channel [2] was 2000 nM.

In the case of `O=C(NCCC(c1ccccc1)c1ccccc1)C1=C(COCCC2CCCCC2)NC(c2ccccc2)=NC1c1cccc(Cl)c1` (stereo not shown) [Example 1, 4-(3-chlorophenyl)-6-[(2-cyclohexylethoxy)methyl]-5-(3,3-diphenylpropylcarbamoyl)-2-phenyl-1,4-dihydropyrimidine], the figures for the IC50 at N-type calcium channel [1] and on N-type calcium channel [2] were 1260 nM and 7940 nM, respectively.

Regarding `CCOC(=O)CN1C(=O)NC(C)=C(C(=O)NC/C=C/c2ccccc2)C1c1cccc(Cl)c1` (stereo not shown) [Example 45, ethyl [6-(3-chlorophenyl)-4-methyl-2-oxo-5-(3-phenyl-2-propene-1-ylcarbamoyl)-3,6-dihydro-2H-pyrimidine-1-yl]acetate], the IC50 on N-type calcium channel [2] was 3980 nM.

Turning to `COCC1=C(C(=O)NCCCc2ccccc2)C(c2cccc(Cl)c2)NC(=O)N1` (stereo not shown) [Example 6, 4-(3-chlorophenyl)-6-methoxymethyl-2-oxo-1,2,3,4-tetrahydropyrimidine-5-carboxylic acid (3-phenylpropyl)amide], the IC50 on N-type calcium channel [1] is 977 nM; at N-type calcium channel [2] it was 5010 nM.
